Test results: patent publication US11051515B2, “3-acyl-benzamides and their use as herbicides” (Bayer Aktiengesellschaft, priority 2017, dated 2021)

What was measured:
[1] = tested on: STEME; test: Post-emergence action against STEME; type: in vivo, Stellaria media; conditions: post-emergence, dosage 80 g/ha
How it was run: (§1)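 Weeds grown in sandy loam in greenhouse, treated at one-leaf stage (2–3 weeks after sowing) with WP or EC formulations sprayed as aqueous suspension/emulsion at 600 to […] water with 0.2% wetting agent. Visual rating after about 3 weeks versus untreated controls, as % herbicidal action (100% = plants dead, 0% = like control).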

[2] = tested on: AMARE; test: Pre-emergence action against AMARE; type: in vivo, Amaranthus retroflexus; conditions: pre-emergence, dosage 320 g/ha, scored visually after 3 weeks vs untreated controls
How it was run: (§2)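 Seeds sown in sandy loam in wood-fiber pots and covered with soil. Greenhouse growth; visual damage scored after 3 weeks versus untreated controls (100% = dead, 0% = like control).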

[3] = tested on: DIGSA; test: Pre-emergence action against DIGSA; type: in vivo, Digitaria sanguinalis; conditions: dosage 320 g/ha, scored visually after 3 weeks vs untreated controls
How it was run: as §2

[4] = tested on: DIGSA; test: Post-emergence action against DIGSA; type: in vivo, Digitaria sanguinalis; conditions: dosage 80 g/ha, visual assessment about 3 weeks after treatment vs untreated controls
Description: Seeds of monocotyledonous and dicotyledonous weed and crop plants are laid out in sandy loam soil in wood-fiber pots, covered with soil and cultivated in a greenhouse under good growth conditions. 2 to 3 weeks after sowing, the test plants are treated at the one-leaf stage. The compounds of the invention, formulated in the form of wettable powders (WP) or as emulsion concentrates (EC), are then sprayed onto the green parts of the plants in the form of an aqueous suspension or emulsion at a water application rate equating to […], with addition of 0.2% wetting agent. After the test plants have been left to stand in the greenhouse under optimal growth conditions for about 3 weeks, the action of the preparations is assessed visually in comparison to untreated controls (herbicidal action in percent (%): 100% activity=the plants have died, 0% activity=like control plants). […] At the same time, inventive compounds leave Gramineae crops such as barley, wheat, rye, millet/Sorghum, corn or rice virtually undamaged when applied post-emergence, even at high active ingredient dosages. In addition, some substances are also harmless to dicotyledonous crops such as soya, cotton, oilseed rape, sugar beet or potatoes. Some of the compounds according to the invention have high selectivity and are therefore suitable for controlling unwanted vegetation in agricultural crops by the post-emergence method. The data of Tables B18 to B34 below illustrate, in an exemplary manner, the […] herbicidal action of the compounds according to the invention, the herbicidal activity being stated in percent.

[5] = tested on: MATIN; test: Post-emergence action against MATIN; type: in vivo, Matricaria inodora; conditions: post-emergence, dosage 80 g/ha, visual assessment about 3 weeks after treatment vs untreated controls
How it was run: as §1

[6] = tested on: ABUTH; test: Post-emergence action against ABUTH; type: in vivo, Abutilon theophrasti; conditions: post-emergence, dosage 80 g/ha, visual assessment about 3 weeks after treatment vs untreated controls
How it was run: as §1

[7] = tested on: VIOTR; test: Post-emergence action against VIOTR; type: in vivo, Viola tricolor; conditions: post-emergence, dosage 80 g/ha
How it was run: as §1

[8] = tested on: ECHCG; test: Pre-emergence action against ECHCG; type: in vivo, Echinochloa crus-galli; conditions: pre-emergence, dosage 320 g/ha, scored visually after 3 weeks vs untreated controls
How it was run: as §2

[9] = tested on: PHBPU; test: Pre-emergence action against PHBPU; type: in vivo, Pharbitis purpurea; conditions: Dosage 320 g/ha, pre-emergence
How it was run: as §2

[10] = tested on: STEME; test: Pre-emergence action against STEME; type: in vivo, Stellaria media; conditions: Dosage 320 g/ha, pre-emergence
How it was run: as §2

[11] = tested on: SETVI; test: Post-emergence action against SETVI; type: in vivo, Setaria viridis; conditions: post-emergence, dosage 80 g/ha, visual assessment about 3 weeks after treatment vs untreated controls
How it was run: as §1

[12] = tested on: VIOTR; test: Pre-emergence action against VIOTR; type: in vivo, Viola tricolor; conditions: Dosage 320 g/ha, pre-emergence
How it was run: as §2

[13] = tested on: ALOMY; test: Post-emergence action against ALOMY; type: in vivo, Alopecurus myosuroides; conditions: Dosage 80 g/ha, post-emergence
How it was run: as §1

[14] = tested on: VERPE; test: Post-emergence action against VERPE; type: in vivo, Veronica persica; conditions: dosage 80 g/ha
How it was run: as §1

[15] = tested on: PHBPU; test: Post-emergence action against PHBPU; type: in vivo, Pharbitis purpurea; conditions: post-emergence, dosage 80 g/ha
How it was run: as §1

[16] = tested on: ECHCG; test: Post-emergence action against ECHCG; type: in vivo, Echinochloa crus-galli; conditions: post-emergence, dosage 80 g/ha, visual assessment about 3 weeks after treatment vs untreated controls
How it was run: as §1

[17] = tested on: MATIN; test: Pre-emergence action against MATIN; type: in vivo, Matricaria inodora; conditions: Dosage 320 g/ha, pre-emergence
How it was run: as §2

[18] = tested on: LOLRI; test: Pre-emergence action against LOLRI; type: in vivo, Lolium rigidum; conditions: dosage 320 g/ha, scored visually after 3 weeks vs untreated controls
How it was run: as §2

[19] = tested on: AMARE; test: Post-emergence action against AMARE; type: in vivo, Amaranthus retroflexus; conditions: post-emergence, dosage 80 g/ha, visual assessment about 3 weeks after treatment vs untreated controls
How it was run: as §1

[20] = tested on: POLCO; test: Post-emergence action against POLCO; type: in vivo, Polygonum convolvulus; conditions: post-emergence, dosage 80 g/ha
How it was run: as §1

[21] = tested on: ALOMY; test: Pre-emergence action against ALOMY; type: in vivo, Alopecurus myosuroides; conditions: dosage 320 g/ha; pre-emergence; scored visually after 3 weeks vs untreated controls; 100% = plants have died, 0% = like control plants
How it was run: as §2

[22] = tested on: VERPE; test: Pre-emergence action against VERPE; type: in vivo, Veronica persica; conditions: Dosage 320 g/ha, pre-emergence
How it was run: as §2

[23] = tested on: SETVI; test: Pre-emergence action against SETVI; type: in vivo, Setaria viridis; conditions: pre-emergence, dosage 320 g/ha, scored visually after 3 weeks vs untreated controls
How it was run: as §2

[24] = tested on: AVEFA; test: Pre-emergence action against AVEFA; type: in vivo, Avena fatua; conditions: dosage 320 g/ha, scored visually after 3 weeks vs untreated controls
How it was run: as §2

[25] = tested on: ABUTH; test: Pre-emergence action against ABUTH; type: in vivo, Abutilon theophrasti; conditions: pre-emergence, dosage 320 g/ha, scored visually after 3 weeks vs untreated controls
How it was run: as §2

[26] = tested on: POLCO; test: Pre-emergence action against POLCO; type: in vivo, Polygonum convolvulus; conditions: Dosage 320 g/ha, pre-emergence
How it was run: as §2

| SMILES | Post-emergence action against STEME [1] | Pre-emergence action against AMARE (herbicidal activity) [2] [%] | Pre-emergence action against DIGSA (herbicidal activity) [3] [%] | Post-emergence action against DIGSA (herbicidal action in percent) [4] [%] | Post-emergence action against MATIN (herbicidal action in percent) [5] [%] | Post-emergence action against ABUTH (herbicidal action in percent) [6] [%] | Post-emergence action against VIOTR [7] | Pre-emergence action against ECHCG (herbicidal activity) [8] [%] | Pre-emergence action against PHBPU [9] [%] | Pre-emergence action against STEME [10] [%] | Post-emergence action against SETVI (herbicidal action in percent) [11] [%] | Pre-emergence action against VIOTR [12] [%] | Post-emergence action against PHBPU [15] | Post-emergence action against ECHCG (herbicidal action in percent) [16] [%] | Pre-emergence action against MATIN [17] [%] | Post-emergence action against AMARE (herbicidal action in percent) [19] [%] | Pre-emergence action against ALOMY (herbicidal activity in percent) [21] [%] | Pre-emergence action against VERPE [22] [%] | SETVI (Table B8, pre-emergence herbicidal activity) [23] [%] | Pre-emergence action against ABUTH (herbicidal activity) [25] [%] | further results |
| --- | --- | --- | --- | --- | --- | --- | --- | --- | --- | --- | --- | --- | --- | --- | --- | --- | --- | --- | --- | --- | --- |
| Cn1nnnc1NC(=O)c1ccc(C(F)(F)F)c(C(=O)C2CCC2)c1Cl [1-153] | 100 | 100 | 100 | 90 | 100 | 100 | 80 | 90 | 80 | 100 | 100 | 100 | 90 | 90 | 100 | 100 | 90 | 100 | 100 | 100 | Post-emergence action against ALOMY [13]: 80%; Post-emergence action against VERPE [14]: 80; Pre-emergence action against LOLRI (herbicidal activity) [18]: 90%; Post-emergence action against POLCO [20]: 80; Pre-emergence action against AVEFA (herbicidal activity) [24]: 80% |
| CCn1nnnc1NC(=O)c1ccc(C(F)(F)F)c(C(=O)CCl)c1C [2-22] | 90 | 100 | 100 | 90 | 90 | 90 | 100 | 90 | 80 | 100 | 80 | 100 | 100 | 90 | 100 | 80 | 90 | 100 | 100 | 100 | Pre-emergence action against POLCO [26]: 80%; Post-emergence action against ALOMY [13]: 80%; Post-emergence action against VERPE [14]: 80; Pre-emergence action against LOLRI (herbicidal activity) [18]: 90%; Pre-emergence action against AVEFA (herbicidal activity) [24]: 100% |
| CCn1nnnc1NC(=O)c1ccc(C(F)(F)F)c(C(=O)C2CCC2)c1Cl [2-153] | 100 | 100 | 100 | 100 | 100 | 100 | 90 |  |  | 90 |  | 100 | 80 | 90 | 100 | 90 | 90 | 100 | 100 | 100 | Post-emergence action against POLCO [20]: 80 |
| CCn1nnnc1NC(=O)c1ccc(C(F)(F)F)c(C(=O)C2CCC2)c1SC [2-284] | 100 | 100 | 100 | 90 | 90 | 100 | 80 | 100 | 80 | 100 | 100 | 100 | 90 | 90 | 100 | 100 | 90 | 100 | 100 | 100 | Post-emergence action against VERPE [14]: 80; Post-emergence action against POLCO [20]: 80; Pre-emergence action against AVEFA (herbicidal activity) [24]: 90% |
| CCCC(=O)c1c(C(F)(F)F)ccc(C(=O)Nc2nnnn2CCC)c1C [3-16] | 90 | 100 | 90 | 90 | 90 | 100 | 80 | 90 | 80 | 100 | 90 | 90 | 90 | 90 | 100 | 100 | 80 | 100 | 100 | 100 | Post-emergence action against ALOMY [13]: 80%; Post-emergence action against VERPE [14]: 80; Post-emergence action against POLCO [20]: 90; Pre-emergence action against AVEFA (herbicidal activity) [24]: 80% |
